Reference: ChEMBL document CHEMBL1125752, “Relationship between tissue selectivity and lipophilicity for inhibitors of HMG-CoA reductase” (J Med Chem, 1991)

Key:
[1] = organism: Rattus norvegicus; test: Incorporation of [14C]- acetate into sterols measured in rat spleen.; format: functional, organism-based
[2] = IC50 ratio evaluated as the IC50 values of spleen to that of liver.; format: functional; set-up: reference not given here
[3] = organism: Rattus norvegicus; test: Incorporation of [14C]- acetate into sterols measured in rat testis.; format: functional, organism-based
[4] = organism: Rattus norvegicus; test: Incorporation of [14C]- acetate into sterols measured in rat liver.; format: functional, organism-based
[5] = biological target: T1, 3-hydroxy-3-methylglutaryl-coenzyme A reductase (Rattus norvegicus, UniProt P51639); test: Ability to inhibit microsomal preparation of HMG-CoA reductase in rat liver.
T1 sequence (P51639 whole entry): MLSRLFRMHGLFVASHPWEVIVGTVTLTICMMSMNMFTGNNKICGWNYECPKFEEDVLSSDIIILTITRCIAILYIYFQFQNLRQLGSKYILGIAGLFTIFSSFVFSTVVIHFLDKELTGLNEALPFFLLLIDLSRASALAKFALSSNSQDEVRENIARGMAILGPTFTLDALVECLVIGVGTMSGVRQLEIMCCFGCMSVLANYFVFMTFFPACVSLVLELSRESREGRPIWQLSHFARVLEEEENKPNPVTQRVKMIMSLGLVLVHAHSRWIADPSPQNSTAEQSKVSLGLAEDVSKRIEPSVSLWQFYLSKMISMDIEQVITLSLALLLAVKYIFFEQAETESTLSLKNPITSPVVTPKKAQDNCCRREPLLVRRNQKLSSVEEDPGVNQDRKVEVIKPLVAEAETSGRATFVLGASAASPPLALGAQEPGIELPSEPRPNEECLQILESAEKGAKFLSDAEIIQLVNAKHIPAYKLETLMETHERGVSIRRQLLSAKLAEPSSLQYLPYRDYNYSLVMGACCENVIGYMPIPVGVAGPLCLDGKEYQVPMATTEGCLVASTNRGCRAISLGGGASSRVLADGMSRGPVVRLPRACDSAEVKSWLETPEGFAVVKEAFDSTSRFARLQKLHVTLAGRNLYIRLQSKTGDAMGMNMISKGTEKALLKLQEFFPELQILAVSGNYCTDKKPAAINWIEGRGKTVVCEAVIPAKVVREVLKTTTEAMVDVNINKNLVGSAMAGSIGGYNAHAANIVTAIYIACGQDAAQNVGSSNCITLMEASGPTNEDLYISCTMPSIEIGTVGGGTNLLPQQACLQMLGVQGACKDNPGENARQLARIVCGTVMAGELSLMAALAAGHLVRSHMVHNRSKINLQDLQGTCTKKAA

[6] = IC50 ratio evaluated as the IC50 values of testis to that of liver.; format: functional; set-up: reference not given here
[7] = organism: Rattus norvegicus; test: Compound was tested for its effect on the incorporation of [14C]- acetate into sterols measured rat liver.; format: functional, organism-based
[8] = organism: Rattus norvegicus; test: Compound was tested for its effect on the incorporation of [14C]- acetate into sterols measured rat spleen.; format: functional, organism-based
[9] = organism: Rattus norvegicus; test: Compound was tested for its effect on the incorporation of [14C]- acetate into sterols measured rat testis.; format: functional, organism-based

CC(C)c1nn(-c2ccccn2)c(-c2ccc(F)cc2)c1/C=C/[C@@H](O)C[C@@H](O)CC(=O)[O-].[Na+]
IC50 [1]: 29 nM
IC50 ratio [2]: 1.7
IC50 [3]: 82 nM
IC50 [4]: 17 nM
IC50 [5]: 10 nM
IC50 ratio [6]: 4.8

CC[C@H](C)C(=O)O[C@H]1C[C@H](C)C=C2C=C[C@H](C)[C@H](CC[C@@H]3C[C@@H](O)CC(=O)O3)[C@H]21
IC50 [1]: 5 nM
IC50 ratio [2]: 0.17
IC50 [3]: 4 nM
IC50 [4]: 28 nM
IC50 [5]: 13 nM
IC50 ratio [6]: 0.14

CC(C)c1nc2ccc(Cl)cc2c(-c2ccc(F)cc2)c1/C=C/[C@@H](O)C[C@@H](O)CC(=O)[O-].[Na+]
IC50 [1]: 92 nM
IC50 ratio [2]: 0.02
IC50 [3]: 184 nM
IC50 [4]: 6280 nM
IC50 [5]: 480 nM
IC50 ratio [6]: 0.03

Cn1nnnc1C(/C=C/[C@@H](O)C[C@@H](O)CC(=O)[O-])=C(c1ccc(F)cc1)c1ccc(F)cc1.[Na+]
IC50 [1]: 1580 nM
IC50 ratio [2]: 14.6
IC50 [3]: 638 nM
IC50 [4]: 108 nM
IC50 [5]: 13 nM
IC50 ratio [6]: 5.9

CC(C)c1nn(-c2ccccc2)c(-c2ccc(F)cc2)c1/C=C/[C@@H](O)C[C@@H](O)CC(=O)[O-].[Na+]
IC50 [1]: 12 nM
IC50 ratio [2]: 0.35
IC50 [3]: 8 nM
IC50 [4]: 34 nM
IC50 [5]: 7.2 nM
IC50 ratio [6]: 0.24

CC(C)c1c(Br)c(Br)c(-c2ccc(F)cc2)n1CC[C@@H](O)C[C@@H](O)CC(=O)[O-].[Na+]
IC50 [1]: 140 nM
IC50 ratio [2]: 0.05
IC50 [3]: 24 nM
IC50 [4]: 2730 nM
IC50 [5]: 26 nM
IC50 ratio [6]: 0.009

CC(C)n1c(/C=C/C(O)CC(O)CC(=O)O)c(-c2ccc(F)cc2)c2ccccc21 (stereo unspecified) [FLUVASTATIN SODIUM]
IC50 [1]: 292 nM
IC50 [3]: 4 nM
IC50 [4]: 142 nM

Cc1cc(-c2ccc(F)cc2)c(/C=C/[C@@H](O)C[C@@H](O)CC(=O)[O-])c(C(C)C)[n+]1[O-].[Na+]
IC50 ratio [2]: 14.8
IC50 [7]: 18 nM
IC50 [8]: 266 nM
IC50 [9]: 718 nM
IC50 [5]: 9.4 nM
IC50 ratio [6]: 39.9

CC(C)c1nc(-c2ccccc2)cc(-c2ccc(F)cc2)c1/C=C/[C@@H](O)C[C@@H](O)CC(=O)[O-].[Na+]
IC50 [1]: 77 nM
IC50 ratio [2]: 0.01
IC50 [3]: 16 nM
IC50 [4]: 8070 nM
IC50 [5]: 2 nM
IC50 ratio [6]: 0.002

Cc1cc(-c2ccc(F)cc2)c(/C=C/[C@@H](O)C[C@@H](O)CC(=O)[O-])c(C(C)C)n1.[Na+]
IC50 ratio [2]: 0.13
IC50 [3]: 17 nM
IC50 [8]: 9 nM
IC50 [4]: 71 nM
IC50 [5]: 7.7 nM
IC50 ratio [6]: 0.24

CC[C@H](C)C(=O)O[C@H]1C[C@H](O)C=C2C=C[C@H](C)[C@H](CC[C@@H](O)C[C@@H](O)CC(=O)[O-])[C@H]21.[Na+] [PRAVASTATIN SODIUM]
IC50 [1]: 228 nM
IC50 ratio [2]: 1.6
IC50 [3]: 329 nM
IC50 [4]: 141 nM
IC50 [5]: 40 nM
IC50 ratio [6]: 2.3

CC(C)c1nn(-c2cnccn2)c(-c2ccc(F)cc2)c1/C=C/[C@@H](O)C[C@@H](O)CC(=O)[O-].[Na+]
IC50 [1]: 20 nM
IC50 ratio [2]: 2
IC50 [3]: 64 nM
IC50 [4]: 10 nM
IC50 [5]: 6.6 nM
IC50 ratio [6]: 6.4

Cc1cc(C)c(OC[C@@H](O)C[C@@H](O)CC(=O)[O-])c(C2CCCCCC2)c1.[Na+]
IC50 [1]: 108 nM
IC50 ratio [2]: 0.02
IC50 [3]: 63 nM
IC50 [4]: 5170 nM
IC50 [5]: 141 nM
IC50 ratio [6]: 0.01

Cc1ccc(-c2ccc(C(C)C)c(OC[C@@H](O)C[C@@H](O)CC(=O)[O-])c2-c2ccc(F)cc2)cc1.[Na+]
IC50 [1]: 375 nM
IC50 ratio [2]: 0.06
IC50 [3]: 511 nM
IC50 [4]: 6040 nM
IC50 [5]: 100 nM
IC50 ratio [6]: 0.08
